Consider three sequences from US20020035061A1, “COMPOSITIONS AND METHODS FOR TREATING INFECTIONS USING CATIONIC PEPTIDES ALONE OR IN COMBINATION WITH ANTIBIOTICS” (priority 1996, published 2002).

For assay [1], the system named is S. epidermidis (ATCC # 12228). The assay is described as follows: In vivo efficacy, S. epidermidis infection. Particulars: iv.
The subject of a further assay is S. pyogenes. The experiment in a line: Agarose dilution assay (MIC). It is filed as cell-based. Particulars: S. pyogenes strain SPY006.
The subject of a further assay is tolerant organisms. The experiment in a line: Overcoming tolerance: MBC and MIC by agarose dilution, antibiotic alone and with peptide. It is filed as cell-based. Particulars: combination of Vancomycin and peptide, organisms of Table 18.

Regarding ILKKWPWWPWRRK [MBI 11CN], the efficacy entry in assay [1] (30 minutes post-infection) is reported as “less activity”; in assay [1] (60 minutes post-infection) it was “no significant effect”; in assay [1] (treatment 15 minutes post-infection), “Efficacy is observed at all three dose levels”. Also, in assay [1] (formulation D), the “survival of the mice” value is reported as “prolongs the survival of the mice”.

As a reminder, the MIC is the lowest concentration found to suppress growth. High values mean a need for much substance, low ones inhibition by little substance. The sequence ILRWPWWPWRRK [MBI 11B7CN] returned a minimum inhibitory concentration (MIC) against S. pyogenes of 16 µg/mL.

As for KWKSFIKKLTSAAKKVVTTAKPLISS [MBI 26], the “tolerance (MBC:MIC) to Vancomycin” value with tolerant organisms is “overcomes the tolerance”.
